# Laboratory results: patent US9708334B2, “Substituted 2,4,5,6-tetrahydropyrrolo[3,4-c]pyrazole and 4,5,6,7-tetrahydro-2H-pyrazolo[4,3-c]pyridine compounds as GlyT1 inhibitors” (DART NEUROSCIENCE (CAYMAN) LTD., priority 2014, dated 2017)
# Biological target: T1, GlyT1 (Homo sapiens, UniProt P48067)
# T1 construct: expressed in transfected cells
# T1 sequence (P48067 1-706): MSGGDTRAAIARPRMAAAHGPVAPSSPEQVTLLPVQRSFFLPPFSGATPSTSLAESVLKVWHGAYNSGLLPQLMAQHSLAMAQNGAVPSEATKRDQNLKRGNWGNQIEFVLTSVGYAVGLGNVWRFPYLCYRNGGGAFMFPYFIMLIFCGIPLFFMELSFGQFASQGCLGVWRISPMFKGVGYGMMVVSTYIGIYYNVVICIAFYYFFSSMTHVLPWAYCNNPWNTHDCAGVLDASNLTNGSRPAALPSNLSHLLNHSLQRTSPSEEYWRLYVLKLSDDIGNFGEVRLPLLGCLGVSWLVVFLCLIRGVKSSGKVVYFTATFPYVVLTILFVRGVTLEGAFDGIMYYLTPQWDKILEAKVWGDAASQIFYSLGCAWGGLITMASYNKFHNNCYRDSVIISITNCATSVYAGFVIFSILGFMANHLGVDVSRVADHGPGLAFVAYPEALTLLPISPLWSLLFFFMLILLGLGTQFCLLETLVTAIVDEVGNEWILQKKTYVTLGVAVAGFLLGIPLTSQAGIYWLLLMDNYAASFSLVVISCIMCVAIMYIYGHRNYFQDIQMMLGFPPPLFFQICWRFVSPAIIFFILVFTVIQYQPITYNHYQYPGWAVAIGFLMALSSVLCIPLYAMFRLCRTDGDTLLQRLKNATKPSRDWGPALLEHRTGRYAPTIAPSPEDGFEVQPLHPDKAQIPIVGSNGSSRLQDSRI
# Test: Glycine Transporter 1 (GlyT1) uptake assay, scintillation proximity assay of [14C]-glycine uptake
# Format: cell-based
# Settings: SPA, four parameter logistic fit, read-out: GlyT1 (pIC50) (converted)
# Experimental: Glycine Transporter 1 (GlyT1) Uptake Assay
# Plates were then read on a MicroBeta plate counter (Perkin Elmer). Dose-response data for tested compounds were analyzed and curves were fit using a four parameter logistic fit to determine IC50 values. […]
row,Compound,IC50
1,"CC(C)COc1ccc(S(C)(=O)=O)cc1C(=O)N1Cc2cn(-c3cccc(C(F)(F)F)c3)nc2C1 [Example 53, 5-[5-Methanesulfonyl-2-(2-methylpropoxy)benzoyl]-2-[3-(trifluoromethyl)phenyl]-2H 4H 5H 6H-pyrrolo[3,4-c]pyrazole]",< 0.1 µM
2,"Cc1c(F)ccc(-n2cc3c(n2)CN(C(=O)c2cc(S(C)(=O)=O)ccc2O[C@@H](C)C(F)(F)F)C3)c1F [Example 58, 2-(2 4-Difluoro-3-methylphenyl)-5-(5-methanesulfonyl-2-{[(2S)-1 1 1-trifluoropropan-2-yl]oxy}benzoyl)-2H 4H 5H 6H-pyrrolo[3,4-c]pyrazole]",< 0.1 µM
3,"C[C@H](Oc1ccc(S(C)(=O)=O)cc1C(=O)N1Cc2cn(-c3cc(Cl)ccc3F)nc2C1)C(F)(F)F [Example 59, 2-(5-Chloro-2-fluorophenyl)-5-(5-methanesulfonyl-2-{[(2S)-1 1 1-trifluoropropan-2-yl]oxy}benzoyl)-2H 4H 5H 6H-pyrrolo[3,4-c]pyrazole]",< 0.1 µM
4,"Cc1c(F)ccc(-n2cc3c(n2)CN(C(=O)c2cc(S(C)(=O)=O)ccc2OC(C)C)C3)c1F [Example 61, 2-(2 4-Difluoro-3-methylphenyl)-5-[5-methanesulfonyl-2-(propan-2-yloxy)benzoyl]-2H 4H 5H 6H-pyrrolo[3,4-c]pyrazole]",< 0.1 µM
5,"CC(C)Oc1ccc(S(C)(=O)=O)cc1C(=O)N1Cc2cn(-c3cc(Cl)ccc3F)nc2C1 [Example 62, 2-(5-Chloro-2-fluorophenyl)-5-[5-methanesulfonyl-2-(propan-2-yloxy)benzoyl]-2H 4H 5H 6H-pyrrolo[3,4-c]pyrazole]",< 0.1 µM
6,"Cc1c(F)ccc(-n2cc3c(n2)CN(C(=O)c2cc(S(C)(=O)=O)ccc2OCC(C)(C)C)C3)c1F [Example 64, 2-(2 4-Difluoro-3-methylphenyl)-5-[2-(2 2-dimethylpropoxy)-5-methanesulfonylbenzoyl]-2H 4H 5H 6H-pyrrolo[3,4-c]pyrazole]",< 0.1 µM
7,"CC(C)(C)COc1ccc(S(C)(=O)=O)cc1C(=O)N1Cc2cn(-c3cc(Cl)ccc3F)nc2C1 [Example 65, 2-(5-Chloro-2-fluorophenyl)-5-[2-(2 2-dimethylpropoxy)-5-methanesulfonylbenzoyl]-2H 4H 5H 6H-pyrrolo[3,4-c]pyrazole]",< 0.1 µM

# Now from value to molecule:
row,IC50,Compound
1,< 0.1 µM,"CS(=O)(=O)c1ccc(N2CCC(F)(F)CC2)c(C(=O)N2Cc3cn(-c4ccccc4)nc3C2)c1 [Example 54, 4 4-Difluoro-1-(4-methanesulfonyl-2-{2-phenyl-2H 4H 5H 6H-pyrrolo[3,4-c]pyrazole-5-carbonyl}phenyl)piperidine]"
2,< 0.1 µM,"CS(=O)(=O)c1ccc(N2CCC(F)(F)CC2)c(C(=O)N2Cc3cn(-c4cccc(C(F)(F)F)c4)nc3C2)c1 [Example 55, 4 4-Difluoro-1-(4-methanesulfonyl-2-{2-[3-(trifluoromethyl)phenyl]-2H 4H 5H 6H-pyrrolo[3,4-e]pyrazole-5-carbonyl}phenyl)piperidine]"
3,< 0.1 µM,"CS(=O)(=O)c1ccc(N2CCC(F)(F)CC2)c(C(=O)N2Cc3cn(-c4ccc(F)cc4)nc3C2)c1 [Example 56, 4 4-Difluoro-1-{2-[2-(4-fluorophenyl)-2H 4H 5H 6H-pyrrolo[3,4-c]pyrazole-5-carbonyl]-4-methanesulfonylphenyl}piperidine]"
4,< 0.1 µM,"CC(C)Oc1ccc(S(C)(=O)=O)cc1C(=O)N1Cc2cn(-c3ccccc3F)nc2C1 [Example 60, 2-(2-Fluorophenyl)-5-[5-methanesulfonyl-2-(propan-2-yloxy)benzoyl]-2H 4H 5H 6H-pyrrolo[3,4-c]pyrazole]"
5,< 0.1 µM,"CC(C)(C)COc1ccc(S(C)(=O)=O)cc1C(=O)N1Cc2cn(-c3ccccc3F)nc2C1 [Example 63, 5-[2-(2 2-Dimethylpropoxy)-5-methanesulfonylbenzoyl]-2-(2-fluorophenyl)-2H 4H 5H 6H-pyrrolo[3,4-c]pyrazole]"
